Values of other authors as cited in patent US11998562B2 (priority 2021, dated 2024).
Entries after “also recorded” stand apart in the source; their conditions may differ.

How the values were obtained:
SARS-CoV = conditions: HAE cells; read-out: IC50, inhibition of SARS-CoV replication
[1] = oral delivery

With `CCC(CC)COC(=O)[C@H](C)N[P@](=O)(OC[C@H]1O[C@@](C#N)(c2ccc3c(N)ncnn23)[C@H](O)[C@@H]1O)Oc1ccccc1` [Remdesivir, 2-Ethylbutyl (2S)-2-{[(S)-{[(2R,3S,4R,5R)-5-(4-aminopyrrolo[2,1-f][1,2,4]triazin-7-yl)-5-cyano-3,4-dihydroxytetrahydrofuran-2-yl]methoxy}(phenoxy)phosphoryl]amino}propanoate] as the molecule, how does the solubility in water read?
The solubility in water was “practically insoluble; also recorded: poorly water soluble”.

And the IC50 (SARS-CoV)?
The IC50 was 69 nM.

What about the first-pass clearance [1] of the same molecule?
Its first-pass clearance is “complete”.
